pEC50: −log10 of the molar value. In brackets after ≈: the same amount, converted by molar mass. Read-outs that look alike come from different tables or passages of the source.
Experiments:
[1] = test system: malarial strain W2 (pyrimethamine and chloroquine-resistant); assay: in vitro antimalarial activity against multidrug resistant strain W2; assay type: cell-based, P. falciparum; details: for EC50: Plasmodium falciparum, read-out: EC50 W2 (nM)
[2] = test system: malarial strain TM90-C2B (mefloquine, chloroquine, atovaquone, and pyrimethamine-resistant); assay: microbe, parasite or virus in culture; assay type: cell-based, P. falciparum; details: for EC50: Plasmodium falciparum, TM90, read-out: EC50 TM90-C2B (nM); for RI: RI = EC50 TM90-C2B/EC50 W2
Text: Ideally, the RI of a compound should lie between 0.3 and 3.0 in order to avoid rapidly inducing resistance in the parasite. […]

[3] = test system: P. berghei sporozoites expressing luciferase; assay: in vitro liver stage activity, luciferase sporozoites infecting HEPG2 hepatoma cells; assay type: cell-based; details: for pEC50: HEPG2 cells
J774 mammalian cells = assay: cytotoxicity to J774 cells; assay type: cell-based; details: Mus musculus; for EC50: J774, read-out: EC50 J774 (μM)
Protocol: This allowed a simplified method for comparing the different assays being simultaneously run. Additionally, each compound was also tested for cytotoxicity using mammalian J774 cell lines in a 96-well plate format.^12-14, 16

Pb-infected mice = assay: in vivo efficacy scouting assay against blood stages; set-up: species or system P. berghei; mice; details: for % inhibition on day 6 PE: Example 2: two mice, single 50 mg/kg oral dose in PEG400 on day 1 PE; for % Inhibition Day 6 PI: vs untreated animals
Protocol: The screening involved a single oral 50 mg/kg dose 1 day post infection (PI) and an assessment of parasitemia on days 3 PI and 6 PI (Table 6).
The screening was performed by treating two infected mice with a single 50 mg/kg oral dose of test compound suspended in PEG400 on day 1 postexposure (PE) followed by assessing parasitemia on days 3 and 6 PE.

[4] = aqueous solubility (LC/MS- or HPLC-based assay); assay type: physicochemical
Text: (§1) Furthermore, to profile the properties of the piperazinyl-4(1H)-quinolones, and to identify potential limitations, aqueous solubility and lipophilicity log D were experimentally determined via LC/MS-based assays as described by the Manetsch laboratory previously^8,10,31,32 (Tables 9-12). Encouragingly, the piperazinyl-4(1H)-quinolones were much more soluble than the previously described phenoxyethoxy-4(1H)-quinolone analogues.^19 As expected, the solubility of all compounds was affected by pH, with better solubility under more acidic conditions.
(§2) In parallel to testing the compounds for in vitro antimalarial activity, a limited structure-property relationship (SPR) study focusing on log D and aqueous solubility was conducted to assess potential physiochemical liabilities (FIG. 22). […] For these reasons, physicochemical properties were not strongly considered as selection criteria for in vivo efficacy studies.

[5] = lipophilicity log D at pH 7.4; assay type: physicochemical; details: octanol/water
Text: as §1, §2

[6] = aqueous medium, pH 2, simulated gastric fluid, pH 2.0, read-out: Solubility pH 2.0
[7] = aqueous medium, pH 6.5, aqueous buffer, pH 6.5, read-out: Solubility pH 6.5
[8] = aqueous solution (buffer not named), pH 2, simulated gastric fluid, pH 2.0, read-out: Solubility pH 2.0
[9] = aqueous solution (buffer not named), pH 6.5, aqueous buffer, pH 6.5, read-out: Solubility pH 6.5
[10] = single oral 50 mg/kg dose 1 day PI
[11] = aqueous solution, pH 2, simulated gastric fluid, pH 2.0, read-out: Solubility pH 2.0
[12] = aqueous solution, pH 6.5, aqueous buffer, pH 6.5, read-out: Solubility pH 6.5

Row | Molecule | EC50 [1] | EC50 [2] | RI [2] | pEC50 ([3]; Plasmodium berghei) | EC50 (J774 mammalian cells) | solubility [4, 6] | solubility [4, 7] | chromatographic logD [5] | % Inhibition Day 6 PI (Pb-infected mice; [10]) | other results
1 | CCCCc1cc2c(=O)c(CC)c[nH]c2cc1OCCOc1ccccc1 [Compound 6ae, 6-Butyl-3-ethyl-7-(2-phenoxyethoxy)quinolin-4(1H)-one] | 0.44 nM | 1.92 nM | 4.36 | 8.58 |  |  |  |  |  | pEC50 (J774 mammalian cells; J774, read-out: EC50 J774): 6.44; % inhibition on day 6 PE (Pb-infected mice): lack of significant parasitemia reduction
2 | COC(=O)c1c[nH]c2cc(OCCCc3ccccc3)ccc2c1=O [Compound 6j, Methyl 4-Oxo-7-(3-phenylpropoxy)-1,4-dihydroquinoline-3-carboxylate] | 0.711 nM |  |  | 8.28 |  |  |  |  |  | % inhibition on day 6 PE (Pb-infected mice): 47.1%
3 | COC(=O)c1c[nH]c2cc(OCCOc3ccccc3)c(Br)cc2c1=O [Compound 6z, Methyl 6-Bromo-4-oxo-7-(2-phenoxyethoxy)-1,4-dihydroquinoline-3-carboxylate] | 4.47 nM | 847 nM |  | 9.47 |  |  |  |  |  | 
4 | CCCCc1cc2c(=O)c(C(=O)O)c[nH]c2cc1OCCOc1ccccc1 [Compound 7b, 6-Butyl-4-oxo-7-(2-phenoxyethoxy)-1,4-dihydroquinoline-3-carboxylic Acid] | 64 nM | 1110 nM |  | 9.57 |  |  |  |  |  | 
5 | COC(=O)c1c[nH]c2cc(CCN3CCN(c4ccccc4)CC3)ccc2c1=O [Compound 8ac, Methyl 4-oxo-7-(2-(4-phenylpiperazin-1-yl)ethyl)-1,4-dihydroquinoline-3-carboxylate] | 25.6 nM | 1500 nM | 58.6 |  | > 20 µM | ≥ 80 µM | ≥ 80 µM | 5.11 |  | 
6 | COC(=O)c1c[nH]c2cc(CCN3CCN(Cc4ccccc4)CC3)ccc2c1=O [Compound 8ad, Methyl 7-(2-(4-benzylpiperazin-1-yl)ethyl)-4-oxo-1,4-dihydroquinoline-3-carboxylate] | 116 nM | 6170 nM |  | 6.80 | > 20 µM | ≥ 80 µM | ≥ 80 µM | 1.72 |  | 
7 | COC(=O)c1c[nH]c2cc(CCN3CCN(Cc4ccc(OC)cc4)CC3)ccc2c1=O [Compound 8ae, Methyl 7-(2-(4-(4-methoxybenzyl)piperazin-1-yl)ethyl)-4-oxo-1,4-dihydroquinoline-3-carboxylate] | 11.6 nM |  | >495 |  | > 20 µM | ≥ 80 µM | ≥ 80 µM | 1.68 |  | 
8 | COC(=O)c1c[nH]c2ccc(CN3CCN(c4ccc(F)cc4)CC3)cc2c1=O [Compound 8ah, Methyl 6-((4-(4-fluorophenyl)piperazin-1-yl)methyl)-4-oxo-1,4-dihydroquinoline-3-carboxylate] | 106 nM | 2900 nM | 27.4 |  | > 20 µM |  |  | 2.17 |  | solubility [4, 8]: ≥ 80 µM; solubility [4, 9]: ≥ 80 µM
9 | O=c1c(Cl)c[nH]c2cc(CN3CCN(c4ccc(F)cc4)CC3)ccc12 [Compound 8al, 3-Chloro-7-((4-(4-fluorophenyl)piperazin-1-yl)methyl)quinolin-4(1H)-one] | 1060 nM | 2290 nM |  |  | > 20 µM |  |  | 2.57 | 71.9% | solubility [4, 8]: ≥ 80 µM; solubility [4, 9]: 40 to 59.9 µM (≈ 14.9 to 22.3 µg/mL); activities in these scout assays (Pb-infected mice; single oral 50 mg/kg dose 1 day PI, result in words): excellent activities
10 | Cc1cc(=O)c2ccc(CN3CCN(c4ccc(F)cc4)CC3)cc2[nH]1 [Compound 8am, 7-((4-(4-Fluorophenyl)piperazin-1-yl)methyl)-2-methylquinolin-4(1H)-one] | 1220 nM | 1450 nM | 1.19 |  | > 20 µM |  |  | 2.44 |  | solubility [4, 8]: ≥ 80 µM; solubility [4, 9]: ≥ 80 µM
11 | COC(=O)c1c[nH]c2cc(N3CCN(c4ccccc4)CC3)c(C)cc2c1=O [Compound 8c, Methyl 6-methyl-4-oxo-7-(4-phenylpiperazin-1-yl)-1,4-dihydroquinoline-3-carboxylate] | 45.5 nM | 1110 nM |  |  | 16.7 µM | ≥ 80 µM | 40 to 59.9 µM (≈ 15.1 to 22.6 µg/mL) | 2.31 | little to moderate protection | 
12 | COC(=O)c1c[nH]c2cc(N3CCN(c4ccccc4)CC3)c(OC)cc2c1=O [Compound 8d, Methyl 6-methoxy-4-oxo-7-(4-phenylpiperazin-1-yl)-1,4-dihydroquinoline-3-carboxylate] | 37.2 nM |  |  |  | 16.8 µM | ≥ 80 µM | 1 to 19.9 µM (≈ 0.393 to 7.83 µg/mL) | 2.64 | little to moderate protection | 
13 | COC(=O)c1c[nH]c2cc(N3CCN(c4ccc(OC)cc4)CC3)ccc2c1=O [Compound 8e, Methyl 7-(4-(4-methoxyphenyl)piperazin-1-yl)-4-oxo-1,4-dihydroquinoline-3-carboxylate] | 7.76 nM | 154 nM | 19.8 |  | > 20 µM |  |  | 2.44 |  | solubility [4, 11]: 40 to 59.9 µM (≈ 15.7 to 23.6 µg/mL); solubility [4, 12]: 20 to 39.9 µM (≈ 7.87 to 15.7 µg/mL)
14 | COC(=O)c1c[nH]c2cc(N3CCN(Cc4ccccc4)CC3)c(OC)cc2c1=O [Compound 8h, Methyl 7-(4-benzylpiperazin-1-yl)-6-methoxy-4-oxo-1,4-dihydroquinoline-3-carboxylate] | 63.5 nM |  |  |  | 12.4 µM | 60 to 79.9 µM (≈ 24.4 to 32.6 µg/mL) | 40 to 59.9 µM (≈ 16.3 to 24.4 µg/mL) | 2.03 |  | 
15 | COC(=O)c1c[nH]c2cc(N3CCN(Cc4ccc(OC)cc4)CC3)ccc2c1=O [Compound 8i, Methyl 7-(4-(4-methoxybenzyl)piperazin-1-yl)-4-oxo-1,4-dihydroquinoline-3-carboxylate] | 19.9 nM | 1340 nM | 67.3 |  |  | ≥ 80 µM | 40 to 59.9 µM (≈ 16.3 to 24.4 µg/mL) | 2.08 |  | 
16 | COC(=O)c1c[nH]c2cc(CN3CCN(Cc4ccc5c(c4)OCO5)CC3)ccc2c1=O [Compound 8m, Methyl 7-((4-(benzo[d][1,3]dioxol-5-ylmethyl)piperazin-1-yl)methyl)-4-oxo-1,4-dihydroquinoline-3-carboxylate] | 157 nM | > 5740 nM | >36.6 |  | > 20 µM | ≥ 80 µM | ≥ 80 µM | 0.87 |  | 
17 | COC(=O)c1c[nH]c2cc(CN3CCN(c4ccc(OC)cc4)CC3)ccc2c1=O [Compound 8n, Methyl 7-((4-(4-methoxyphenyl)piperazin-1-yl)methyl)-4-oxo-1,4-dihydroquinoline-3-carboxylate] | 3.56 nM | 222 nM |  | 9.91 |  |  |  | 2.11 | little to moderate protection | EC50 ([3]; Plasmodium berghei, HepG2, text values printed in pM): 123 pM; solubility [4, 11]: ≥ 80 µM; solubility [4, 12]: 40 to 59.9 µM (≈ 16.3 to 24.4 µg/mL)
18 | COC(=O)c1c[nH]c2cc(CN3CCN(Cc4ccc(OC)cc4)CC3)c(C)cc2c1=O [Compound 8s, Methyl 7-((4-(4-methoxybenzyl)piperazin-1-yl)methyl)-6-methyl-4-oxo-1,4-dihydroquinoline-3-carboxylate] | 2.4 nM | 1020 nM | 426 |  | > 20 µM | ≥ 80 µM | ≥ 80 µM | 2.03 | little to moderate protection | 
19 | COC(=O)c1c[nH]c2cc(CN3CCN(Cc4ccc(OC)cc4)CC3)c(OC)cc2c1=O [Compound 8y, Methyl 6-methoxy-7-((4-(4-methoxybenzyl)piperazin-1-yl)methyl)-4-oxo-1,4-dihydroquinoline-3-carboxylate] | 9.97 nM | 2750 nM |  | 7.28 | > 20 µM |  |  |  | little to moderate protection | 
20 | Methyl 7-(4-benzylpiperazin-1-yl)-4-oxo-1,4-dihydroquinoline-3-carboxylate [Compound 8b] |  |  | 1.31 |  |  |  |  |  |  | pEC50 ([1]; blood stage in vitro, strain W2, read-out: EC50 W2): 6.48; pEC50 ([2]; blood stage in vitro, atovaquone-resistant strain TM90-C2B, read-out: EC50 TM90-C2B): 6.37; pEC50 [3]: 8.24

Reference: patent US10000452B1, “Quinolone-based compounds, formulations, and uses thereof” (University of South Florida, priority 2016, dated 2018)
